The source made the active and inactive calls. No cut-off for these calls is given here.
How the values were obtained:
[1] = target: T1, Alpha-galactosidase A (Homo sapiens) (UniProt P06280); test: Concentration required to inhibit alpha-galactocosidase
T1 sequence (whole entry): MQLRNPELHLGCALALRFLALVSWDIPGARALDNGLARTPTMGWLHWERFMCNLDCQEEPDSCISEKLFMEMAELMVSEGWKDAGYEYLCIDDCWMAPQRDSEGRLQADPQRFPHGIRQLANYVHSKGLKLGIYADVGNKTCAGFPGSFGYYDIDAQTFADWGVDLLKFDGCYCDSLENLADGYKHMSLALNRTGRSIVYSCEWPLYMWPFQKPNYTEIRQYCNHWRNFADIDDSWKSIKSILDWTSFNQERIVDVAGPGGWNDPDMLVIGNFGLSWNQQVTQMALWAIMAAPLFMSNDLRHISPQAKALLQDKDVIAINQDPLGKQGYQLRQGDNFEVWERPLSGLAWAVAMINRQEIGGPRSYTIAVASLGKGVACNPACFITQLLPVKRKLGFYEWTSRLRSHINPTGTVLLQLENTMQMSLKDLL

[2] = target: Beta-glucosidase A (Caldicellulosiruptor saccharolyticus) (UniProt P10482); test: Concentration required to inhibit beta-glucosidase; IA means inactive
[3] = Concentration required to inhibit alpha-mannosidase; IA means inactive
[4] = target: Maltase-glucoamylase (Homo sapiens) (UniProt O43451); test: Concentration required to inhibit alpha-glucosidase
[5] = target: T2, Beta-galactosidase (Homo sapiens) (UniProt P16278); test: Concentration required to inhibit beta-galactosidase
T2 sequence (whole entry): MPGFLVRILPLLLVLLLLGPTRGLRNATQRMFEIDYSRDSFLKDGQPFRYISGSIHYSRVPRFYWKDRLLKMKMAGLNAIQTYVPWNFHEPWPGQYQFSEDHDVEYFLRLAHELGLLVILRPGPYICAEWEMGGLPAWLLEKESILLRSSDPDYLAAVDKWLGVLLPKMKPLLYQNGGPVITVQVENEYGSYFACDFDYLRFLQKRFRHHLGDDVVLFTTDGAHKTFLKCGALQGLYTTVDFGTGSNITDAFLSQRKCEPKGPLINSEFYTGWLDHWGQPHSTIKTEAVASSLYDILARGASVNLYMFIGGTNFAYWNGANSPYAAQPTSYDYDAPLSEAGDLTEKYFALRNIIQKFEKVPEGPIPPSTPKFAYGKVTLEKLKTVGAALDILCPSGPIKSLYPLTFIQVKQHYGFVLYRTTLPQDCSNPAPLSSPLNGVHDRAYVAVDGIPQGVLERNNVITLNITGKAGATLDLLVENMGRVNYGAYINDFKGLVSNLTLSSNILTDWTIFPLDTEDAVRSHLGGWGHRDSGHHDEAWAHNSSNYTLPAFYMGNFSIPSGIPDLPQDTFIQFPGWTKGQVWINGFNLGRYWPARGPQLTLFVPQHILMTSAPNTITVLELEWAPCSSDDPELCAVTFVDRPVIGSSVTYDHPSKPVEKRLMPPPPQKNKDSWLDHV

[6] = target: T3, Beta-mannosidase (Rattus norvegicus) (UniProt Q4FZV0); test: Concentration required to inhibit beta-mannosidase; IA means inactive
T3 sequence (whole entry): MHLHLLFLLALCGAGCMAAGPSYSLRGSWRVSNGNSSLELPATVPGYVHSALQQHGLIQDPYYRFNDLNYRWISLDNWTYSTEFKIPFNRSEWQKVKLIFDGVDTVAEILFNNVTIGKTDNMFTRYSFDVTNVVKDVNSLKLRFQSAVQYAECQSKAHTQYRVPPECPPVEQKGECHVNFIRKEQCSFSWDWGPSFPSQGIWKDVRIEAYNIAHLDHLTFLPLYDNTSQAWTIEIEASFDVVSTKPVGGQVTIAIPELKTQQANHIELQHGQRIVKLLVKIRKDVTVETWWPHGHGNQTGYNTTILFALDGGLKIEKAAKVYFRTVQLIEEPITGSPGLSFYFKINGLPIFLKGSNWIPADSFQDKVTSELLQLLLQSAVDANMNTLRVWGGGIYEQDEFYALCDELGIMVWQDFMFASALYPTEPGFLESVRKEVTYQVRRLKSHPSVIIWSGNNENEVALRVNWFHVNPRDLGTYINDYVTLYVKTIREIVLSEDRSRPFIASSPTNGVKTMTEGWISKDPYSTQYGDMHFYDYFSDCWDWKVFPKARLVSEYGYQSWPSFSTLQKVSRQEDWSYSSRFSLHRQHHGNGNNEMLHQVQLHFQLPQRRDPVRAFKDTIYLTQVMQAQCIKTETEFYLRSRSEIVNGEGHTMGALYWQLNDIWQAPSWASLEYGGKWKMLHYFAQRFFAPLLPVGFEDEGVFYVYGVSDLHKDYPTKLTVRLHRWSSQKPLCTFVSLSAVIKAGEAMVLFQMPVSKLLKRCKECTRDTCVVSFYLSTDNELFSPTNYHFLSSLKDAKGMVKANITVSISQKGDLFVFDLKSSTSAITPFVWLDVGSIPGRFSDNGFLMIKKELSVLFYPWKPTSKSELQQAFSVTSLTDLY

[7] = target: T1, Alpha-galactosidase A (Homo sapiens); test: Concentration required to inhibit alpha-galactocosidase; IA means inactive
[8] = target: Maltase-glucoamylase (Homo sapiens) (UniProt O43451); test: Concentration required to inhibit alpha-glucosidase; IA means inactive
[9] = target: T2, Beta-galactosidase (Homo sapiens); test: Concentration required to inhibit beta-galactosidase; IA means inactive
[10] = target: T3, Beta-mannosidase (Rattus norvegicus); test: Concentration required to inhibit beta-mannosidase

Maltase-glucoamylase (Homo sapiens), sequence (O43451 whole entry, looked up): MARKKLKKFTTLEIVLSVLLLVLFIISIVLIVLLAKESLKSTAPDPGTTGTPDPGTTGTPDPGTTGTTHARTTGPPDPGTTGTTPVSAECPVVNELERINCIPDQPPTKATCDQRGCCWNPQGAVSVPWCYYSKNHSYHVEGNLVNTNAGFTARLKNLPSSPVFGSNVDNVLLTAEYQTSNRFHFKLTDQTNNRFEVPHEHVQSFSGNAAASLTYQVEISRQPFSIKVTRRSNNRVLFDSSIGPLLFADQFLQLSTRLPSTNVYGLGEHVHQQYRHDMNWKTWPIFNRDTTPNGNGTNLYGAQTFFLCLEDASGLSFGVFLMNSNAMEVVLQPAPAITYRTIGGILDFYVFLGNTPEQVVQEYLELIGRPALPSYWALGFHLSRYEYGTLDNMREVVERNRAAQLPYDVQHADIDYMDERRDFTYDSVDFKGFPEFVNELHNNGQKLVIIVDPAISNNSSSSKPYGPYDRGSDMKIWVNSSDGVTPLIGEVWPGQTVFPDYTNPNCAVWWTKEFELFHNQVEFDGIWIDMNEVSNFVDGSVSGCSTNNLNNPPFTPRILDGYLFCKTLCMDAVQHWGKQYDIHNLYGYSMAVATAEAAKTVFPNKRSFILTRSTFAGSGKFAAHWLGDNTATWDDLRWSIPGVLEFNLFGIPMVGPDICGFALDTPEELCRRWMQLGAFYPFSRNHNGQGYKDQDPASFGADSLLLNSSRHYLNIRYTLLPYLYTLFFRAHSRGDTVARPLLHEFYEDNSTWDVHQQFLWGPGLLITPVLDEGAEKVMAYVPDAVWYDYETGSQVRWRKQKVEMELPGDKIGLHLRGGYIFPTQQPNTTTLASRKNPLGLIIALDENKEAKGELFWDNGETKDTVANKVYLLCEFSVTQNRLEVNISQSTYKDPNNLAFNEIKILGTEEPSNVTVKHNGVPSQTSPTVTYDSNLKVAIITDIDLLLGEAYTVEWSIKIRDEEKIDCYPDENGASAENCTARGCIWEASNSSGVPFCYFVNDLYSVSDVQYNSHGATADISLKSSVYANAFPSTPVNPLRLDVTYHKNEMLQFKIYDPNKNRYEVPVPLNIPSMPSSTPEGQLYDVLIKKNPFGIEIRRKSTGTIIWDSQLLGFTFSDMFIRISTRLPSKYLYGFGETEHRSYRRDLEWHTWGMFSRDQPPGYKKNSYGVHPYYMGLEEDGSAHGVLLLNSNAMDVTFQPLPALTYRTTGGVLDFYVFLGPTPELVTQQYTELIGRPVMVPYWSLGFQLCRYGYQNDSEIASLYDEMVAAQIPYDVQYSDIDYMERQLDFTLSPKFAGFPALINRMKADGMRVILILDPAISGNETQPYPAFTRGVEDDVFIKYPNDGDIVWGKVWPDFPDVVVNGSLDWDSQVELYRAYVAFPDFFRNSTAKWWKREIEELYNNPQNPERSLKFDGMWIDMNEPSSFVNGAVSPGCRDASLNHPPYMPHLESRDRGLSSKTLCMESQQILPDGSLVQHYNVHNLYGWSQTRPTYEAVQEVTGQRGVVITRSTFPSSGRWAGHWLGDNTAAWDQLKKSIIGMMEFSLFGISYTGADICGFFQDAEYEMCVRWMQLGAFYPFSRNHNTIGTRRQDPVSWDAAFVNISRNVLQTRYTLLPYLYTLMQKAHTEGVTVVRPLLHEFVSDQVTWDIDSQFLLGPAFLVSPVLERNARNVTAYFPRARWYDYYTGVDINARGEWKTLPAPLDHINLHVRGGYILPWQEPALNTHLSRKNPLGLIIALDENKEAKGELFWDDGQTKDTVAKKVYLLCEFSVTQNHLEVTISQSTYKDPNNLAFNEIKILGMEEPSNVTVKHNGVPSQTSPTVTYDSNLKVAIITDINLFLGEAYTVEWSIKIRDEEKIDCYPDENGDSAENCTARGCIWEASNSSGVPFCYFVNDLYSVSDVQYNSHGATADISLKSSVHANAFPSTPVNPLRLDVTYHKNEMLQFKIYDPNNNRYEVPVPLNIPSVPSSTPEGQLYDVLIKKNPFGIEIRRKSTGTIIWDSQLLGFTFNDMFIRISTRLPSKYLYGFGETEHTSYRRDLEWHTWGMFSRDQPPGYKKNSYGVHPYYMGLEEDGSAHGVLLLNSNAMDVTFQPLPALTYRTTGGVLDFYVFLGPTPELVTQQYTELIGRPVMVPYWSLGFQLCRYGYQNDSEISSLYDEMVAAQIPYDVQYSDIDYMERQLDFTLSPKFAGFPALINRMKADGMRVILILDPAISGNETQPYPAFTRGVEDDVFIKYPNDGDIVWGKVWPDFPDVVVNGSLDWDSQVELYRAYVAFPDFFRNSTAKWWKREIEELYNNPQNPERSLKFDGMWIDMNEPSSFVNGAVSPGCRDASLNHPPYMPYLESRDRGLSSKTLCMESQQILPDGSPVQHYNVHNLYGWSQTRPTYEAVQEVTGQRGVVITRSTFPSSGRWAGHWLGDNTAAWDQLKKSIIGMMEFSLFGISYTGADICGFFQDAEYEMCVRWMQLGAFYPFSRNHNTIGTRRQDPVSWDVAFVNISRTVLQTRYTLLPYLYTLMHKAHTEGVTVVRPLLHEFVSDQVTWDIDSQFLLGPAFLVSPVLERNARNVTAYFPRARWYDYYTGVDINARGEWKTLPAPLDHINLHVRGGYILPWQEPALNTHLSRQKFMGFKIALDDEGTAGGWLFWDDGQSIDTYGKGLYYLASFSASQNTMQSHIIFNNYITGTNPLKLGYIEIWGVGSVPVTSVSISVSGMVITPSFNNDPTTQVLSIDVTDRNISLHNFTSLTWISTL
Beta-glucosidase A (Caldicellulosiruptor saccharolyticus), sequence (P10482 whole entry): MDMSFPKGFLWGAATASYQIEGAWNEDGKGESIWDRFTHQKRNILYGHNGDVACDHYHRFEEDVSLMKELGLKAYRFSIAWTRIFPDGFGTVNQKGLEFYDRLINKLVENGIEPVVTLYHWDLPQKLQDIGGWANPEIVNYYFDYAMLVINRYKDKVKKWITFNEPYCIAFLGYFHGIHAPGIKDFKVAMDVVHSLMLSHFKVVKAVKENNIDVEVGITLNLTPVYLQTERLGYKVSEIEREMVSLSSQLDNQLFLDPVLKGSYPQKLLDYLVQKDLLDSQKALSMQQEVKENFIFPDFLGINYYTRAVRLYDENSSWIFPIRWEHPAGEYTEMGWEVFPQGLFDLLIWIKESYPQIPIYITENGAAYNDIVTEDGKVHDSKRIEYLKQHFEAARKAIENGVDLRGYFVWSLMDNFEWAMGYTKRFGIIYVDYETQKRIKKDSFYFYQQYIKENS

Row | Structure (SMILES) | Concentration [1] [µM] | Concentration [2] | Concentration [3] | Concentration [4] [µM] | Concentration [5] [µM] | Concentration [6] | Concentration [7] | Concentration [8] | Concentration [9] | Concentration [10] [mM]
1 | O[C@@H]1[C@@H](O)[C@@H](O)[C@H](O[C@H]2[C@@H](O)[C@H](O)[C@@H](O)[C@@H](O)[C@@H]2O)[C@@H](O)[C@H]1O | – | inactive | inactive | 800 | 600 | inactive | inactive | – | – | –
2 | O[C@H]1[C@H](O)[C@@H](O)[C@H](O)[C@@H](O)[C@H]1O | – | inactive | inactive | – | – | inactive | inactive | inactive | inactive | –
3 | O[C@H]1[C@H](O)[C@@H](O)C=C[C@H]1O | – | inactive | inactive | – | 600 | inactive | inactive | inactive | – | –

More lines, now with the values ahead:

Row | Concentration [1] [µM] | Concentration [2] | Concentration [3] | Concentration [4] [µM] | Concentration [5] [µM] | Concentration [6] | Concentration [7] | Concentration [8] | Concentration [9] | Concentration [10] [mM] | Structure (SMILES)
4 | 850 | inactive | inactive | 60 | 190 | inactive | – | – | – | – | O[C@H]1[C@H](O)[C@@H](O[C@H]2[C@H](O)[C@H](O)C=C[C@@H]2O)C=C[C@H]1O
5 | 275 | inactive | inactive | – | 250 | – | – | inactive | – | 1.5 | O[C@H]1[C@H](O)[C@@H](O[C@H]2C=C[C@@H](O)[C@@H](O)[C@@H]2O)C=C[C@H]1O

From ChEMBL document CHEMBL1137963, “New oligomers of conduritol-F and muco-inositol. Synthesis and biological evaluation as glycosidase inhibitors” (Bioorg Med Chem Lett, 2004)
